Experimental data: US11890287B2, “Therapeutic compounds and compositions for treating social disorders and substance use disorders” (Kinoxis Therapeutics Pty Ltd, priority 2015, dated 2024)
Entries after “also recorded” stand apart in the source; their conditions may differ.

What was measured:
male Albino Wistar rats = test: Social preference test (caged conspecific vs toy rat); type: in vivo; conditions: 5 mg/kg IP
Sprague Dawley rats = test: Acute toxicity, single intravenous bolus dose 1-30 mg/kg, one week dose range finding study; type: in vivo; conditions: for Hunched posture or gait- mild (incidence) / Number of abnormalities detected: (incidence) / Palpebral closure- mild/moderate (incidence) / Piloerection- mild (incidence) / Reduced activity- mild (incidence): n 3
Experimental: The acute toxicity of the SOC-1 test item was assessed in Sprague Dawley rats following intravenous administration of a single bolus dose. A total of four groups of n=3 adult female rats were treated with 1, 3, 10 and 30 mg/kg doses of SOC-1. The rats were then observed for 7 days prior to termination on Study Day 8 without necropsy.
The design of this acute single dose toxicity study in rats was adapted from OECD Guideline for Testing of Chemicals No. 420 Acute Oral Toxicity—Fixed Dose Procedure’ 2001 (2) and the test facility Standard Operating Procedure SP_T002 ‘Dose Range Finding Study in Rodents’. The study procedures were conducted as outlined below and according to related test facility Standard Operating Procedures.
Briefly, on completion of the acclimation period the study was commenced with administration of the treatment on Study Day 1. […] Body weights were also collected daily. On Study Day 8 the surviving animals were culled without necropsy.
The test item treatments were administered as a bolus intravenous injection in a dose volume of 2 mL/kg on Study Day 1 with restraint on conscious animals (with the exception of Group 4 where the treatment was administered in a dose volume of 6 mL/kg on lightly anaesthetised animals following the administration of isofluorane anaesthetic).
Morbidity and mortality observations were recorded daily during the acclimation period and on Day 8, and twice daily from Day 1 through Day 7.
Clinical observations were conducted at least once during the acclimation period. Clinical observations were conducted at least once daily from Day 1 up to and including the day prior to termination. On the day of treatment the animals were monitored continuously for the first 30 min post-treatment with formal observations made at 30 minutes, 1 hour and 4 hours post-treatment.
The clinical observations included examination of animals for changes in skin and fur, eyes and mucous membranes, respiratory and circulatory function, gait and posture, behaviour, tremors or convulsions and any other abnormal findings.
The clinical observations also included daily examination of the tail for any injection site reaction (for example, erythema or oedema).
Body weight was recorded once during the acclimation period and daily from the time of treatment on Day 1 to Day 8. The mean body weight values for study days 1-8 are shown as group mean±standard deviation (SD) in FIG. 14.

5-HT1A = target: T1, 5-HT1A (Homo sapiens, UniProt P08908); test: PDSP orthosteric binding screen
T1 construct: Psychoactive Drug Screening Program (PDSP)
Text: (§1) Comprehensive screening of affinity for the orthosteric binding sites for numerous receptors from the Psychoactive Drug Screening Program (PDSP) have failed as yet to identify a target, despite the powerful OT-like behavioural effects of the compound evident in vivo and the clear activation of brain OT systems evident from our Fos data.

5-HT1B = target: T2, 5-HT1B (Homo sapiens, UniProt P28222); test: PDSP orthosteric binding screen
T2 construct: Psychoactive Drug Screening Program (PDSP)
Text: as §1

5-HT1D = target: T3, 5-HT1D (Homo sapiens, UniProt P28221); test: PDSP orthosteric binding screen
T3 construct: Psychoactive Drug Screening Program (PDSP)
Text: as §1

5-HT2A = target: T4, 5-HT2A (Homo sapiens, UniProt P28223); test: PDSP orthosteric binding screen
T4 construct: Psychoactive Drug Screening Program (PDSP)
Text: as §1

5-HT2B = target: T5, 5-HT2B (Homo sapiens, UniProt P41595); test: PDSP orthosteric binding screen
T5 construct: Psychoactive Drug Screening Program (PDSP)
Text: as §1

5-HT3 = target: T6, 5-HT3 (Homo sapiens, UniProt P46098); test: PDSP orthosteric binding screen
T6 construct: Psychoactive Drug Screening Program (PDSP)
Text: as §1

5-HT7 = target: T7, 5-HT7 (Homo sapiens, UniProt P34969); test: PDSP orthosteric binding screen
T7 construct: Psychoactive Drug Screening Program (PDSP)
Text: as §1

5-ht1e = target: T8, 5-ht1e (Homo sapiens, UniProt P28566); test: PDSP orthosteric binding screen
T8 construct: Psychoactive Drug Screening Program (PDSP)
Text: as §1

Alpha2C = target: T9, Alpha2C (Homo sapiens, UniProt P18825); test: PDSP orthosteric binding screen
T9 construct: Psychoactive Drug Screening Program (PDSP)
Text: as §1

D3 = target: T10, D3 (Homo sapiens, UniProt P35462); test: PDSP orthosteric binding screen
T10 construct: Psychoactive Drug Screening Program (PDSP)
Text: as §1

H1 = target: T11, H1 (Homo sapiens, UniProt P35367); test: PDSP orthosteric binding screen
T11 construct: Psychoactive Drug Screening Program (PDSP)
Text: as §1

M1 = target: T12, M1 (Homo sapiens, UniProt P11229); test: PDSP orthosteric binding screen
T12 construct: Psychoactive Drug Screening Program (PDSP)
Text: as §1

M5 = target: T13, M5 (Homo sapiens, UniProt P08912); test: PDSP orthosteric binding screen
T13 construct: Psychoactive Drug Screening Program (PDSP)
Text: as §1

MOR = target: T14, MOR (Homo sapiens, UniProt P35372); test: PDSP orthosteric binding screen
T14 construct: Psychoactive Drug Screening Program (PDSP)
Text: as §1

NET = target: T15, NET (Homo sapiens, UniProt P23975); test: PDSP orthosteric binding screen
T15 construct: Psychoactive Drug Screening Program (PDSP)
Text: as §1

T7 sequence (P34969 whole entry, species assumed): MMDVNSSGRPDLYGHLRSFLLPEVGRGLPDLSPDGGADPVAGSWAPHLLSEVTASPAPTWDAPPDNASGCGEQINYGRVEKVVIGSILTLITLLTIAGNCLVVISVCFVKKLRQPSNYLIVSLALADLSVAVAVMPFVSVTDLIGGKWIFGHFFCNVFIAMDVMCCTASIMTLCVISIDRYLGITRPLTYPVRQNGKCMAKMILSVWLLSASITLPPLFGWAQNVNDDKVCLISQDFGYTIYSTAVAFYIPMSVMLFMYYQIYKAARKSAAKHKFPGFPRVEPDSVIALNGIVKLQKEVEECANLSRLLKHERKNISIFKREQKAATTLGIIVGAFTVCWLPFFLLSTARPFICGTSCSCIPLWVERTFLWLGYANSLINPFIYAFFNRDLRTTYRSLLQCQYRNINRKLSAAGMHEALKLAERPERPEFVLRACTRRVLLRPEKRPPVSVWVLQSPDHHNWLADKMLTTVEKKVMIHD
T2 sequence (P28222 whole entry, species assumed): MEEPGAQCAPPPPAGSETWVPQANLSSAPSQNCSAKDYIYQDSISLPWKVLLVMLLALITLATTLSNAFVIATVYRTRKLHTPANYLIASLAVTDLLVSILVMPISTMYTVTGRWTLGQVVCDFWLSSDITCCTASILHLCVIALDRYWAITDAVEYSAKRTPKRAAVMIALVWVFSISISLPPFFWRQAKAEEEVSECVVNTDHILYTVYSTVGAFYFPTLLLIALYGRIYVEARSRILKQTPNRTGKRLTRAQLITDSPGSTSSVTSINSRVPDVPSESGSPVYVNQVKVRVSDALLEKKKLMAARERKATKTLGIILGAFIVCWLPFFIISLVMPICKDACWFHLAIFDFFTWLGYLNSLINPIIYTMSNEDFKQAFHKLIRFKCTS
T11 sequence (P35367 whole entry): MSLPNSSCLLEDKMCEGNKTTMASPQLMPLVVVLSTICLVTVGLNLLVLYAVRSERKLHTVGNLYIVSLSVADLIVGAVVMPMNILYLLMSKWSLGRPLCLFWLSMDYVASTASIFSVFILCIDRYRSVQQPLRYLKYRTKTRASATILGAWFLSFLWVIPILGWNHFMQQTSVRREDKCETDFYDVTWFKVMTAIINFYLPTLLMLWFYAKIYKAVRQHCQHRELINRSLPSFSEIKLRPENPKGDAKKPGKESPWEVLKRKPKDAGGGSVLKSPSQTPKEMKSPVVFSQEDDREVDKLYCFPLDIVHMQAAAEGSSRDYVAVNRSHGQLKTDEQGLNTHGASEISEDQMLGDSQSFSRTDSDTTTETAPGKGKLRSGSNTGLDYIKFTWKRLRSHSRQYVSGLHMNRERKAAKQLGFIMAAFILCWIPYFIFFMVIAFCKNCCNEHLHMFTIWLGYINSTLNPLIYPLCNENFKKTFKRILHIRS
T8 sequence (P28566 whole entry, species assumed): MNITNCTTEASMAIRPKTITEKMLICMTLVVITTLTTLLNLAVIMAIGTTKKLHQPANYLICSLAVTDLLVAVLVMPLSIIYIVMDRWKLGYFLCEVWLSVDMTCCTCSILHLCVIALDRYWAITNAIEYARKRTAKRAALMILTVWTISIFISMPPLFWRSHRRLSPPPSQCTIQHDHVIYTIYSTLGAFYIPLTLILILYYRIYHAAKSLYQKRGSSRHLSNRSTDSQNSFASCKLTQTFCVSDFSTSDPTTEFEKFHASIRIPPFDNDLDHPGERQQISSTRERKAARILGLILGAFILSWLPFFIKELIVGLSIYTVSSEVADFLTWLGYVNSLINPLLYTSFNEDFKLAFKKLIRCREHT
T3 sequence (P28221 whole entry, species assumed): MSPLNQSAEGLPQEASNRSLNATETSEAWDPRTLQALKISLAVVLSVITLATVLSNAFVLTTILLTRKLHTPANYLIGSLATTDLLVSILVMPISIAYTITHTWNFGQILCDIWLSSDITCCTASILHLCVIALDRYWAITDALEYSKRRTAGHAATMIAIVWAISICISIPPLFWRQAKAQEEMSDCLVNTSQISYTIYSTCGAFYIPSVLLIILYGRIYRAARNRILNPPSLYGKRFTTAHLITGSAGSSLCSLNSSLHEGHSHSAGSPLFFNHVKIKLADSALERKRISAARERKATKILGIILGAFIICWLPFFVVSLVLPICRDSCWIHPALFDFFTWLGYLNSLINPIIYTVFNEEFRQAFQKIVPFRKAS
T5 sequence (P41595 whole entry, species assumed): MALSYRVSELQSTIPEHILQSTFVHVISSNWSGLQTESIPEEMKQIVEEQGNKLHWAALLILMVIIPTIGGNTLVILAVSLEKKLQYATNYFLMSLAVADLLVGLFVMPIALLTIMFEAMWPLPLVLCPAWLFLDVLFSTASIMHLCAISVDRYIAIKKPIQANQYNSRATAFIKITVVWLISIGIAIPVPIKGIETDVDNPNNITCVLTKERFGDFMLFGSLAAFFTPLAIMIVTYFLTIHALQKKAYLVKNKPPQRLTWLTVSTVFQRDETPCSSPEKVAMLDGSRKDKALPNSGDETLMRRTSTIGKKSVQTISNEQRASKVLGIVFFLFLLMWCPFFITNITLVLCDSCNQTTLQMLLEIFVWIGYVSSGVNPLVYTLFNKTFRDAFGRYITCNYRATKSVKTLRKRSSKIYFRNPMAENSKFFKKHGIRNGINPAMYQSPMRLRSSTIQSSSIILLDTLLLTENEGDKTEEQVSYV
T9 sequence (P18825 whole entry): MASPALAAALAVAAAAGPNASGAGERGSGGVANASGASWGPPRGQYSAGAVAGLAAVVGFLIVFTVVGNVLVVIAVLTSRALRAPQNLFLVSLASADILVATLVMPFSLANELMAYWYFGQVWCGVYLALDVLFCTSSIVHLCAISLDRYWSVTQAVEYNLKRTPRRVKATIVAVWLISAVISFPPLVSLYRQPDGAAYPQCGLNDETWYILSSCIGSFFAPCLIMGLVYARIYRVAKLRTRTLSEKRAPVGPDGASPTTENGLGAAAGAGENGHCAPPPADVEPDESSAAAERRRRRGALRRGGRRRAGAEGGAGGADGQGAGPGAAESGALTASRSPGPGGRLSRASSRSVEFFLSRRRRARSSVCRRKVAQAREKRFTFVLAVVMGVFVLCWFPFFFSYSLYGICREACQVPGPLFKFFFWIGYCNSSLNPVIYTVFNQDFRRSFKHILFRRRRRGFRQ
T10 sequence (P35462 whole entry): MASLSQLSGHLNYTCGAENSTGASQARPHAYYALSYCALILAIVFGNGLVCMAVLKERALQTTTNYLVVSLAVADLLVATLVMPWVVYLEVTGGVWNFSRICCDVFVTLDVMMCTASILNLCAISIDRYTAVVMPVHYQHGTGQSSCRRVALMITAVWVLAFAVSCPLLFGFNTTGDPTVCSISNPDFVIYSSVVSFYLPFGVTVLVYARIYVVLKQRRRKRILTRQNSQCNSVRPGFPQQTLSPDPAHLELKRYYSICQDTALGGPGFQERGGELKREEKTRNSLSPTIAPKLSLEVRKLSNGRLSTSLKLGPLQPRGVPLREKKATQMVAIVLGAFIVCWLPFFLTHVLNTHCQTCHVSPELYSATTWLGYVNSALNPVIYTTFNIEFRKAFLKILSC
T12 sequence (P11229 whole entry): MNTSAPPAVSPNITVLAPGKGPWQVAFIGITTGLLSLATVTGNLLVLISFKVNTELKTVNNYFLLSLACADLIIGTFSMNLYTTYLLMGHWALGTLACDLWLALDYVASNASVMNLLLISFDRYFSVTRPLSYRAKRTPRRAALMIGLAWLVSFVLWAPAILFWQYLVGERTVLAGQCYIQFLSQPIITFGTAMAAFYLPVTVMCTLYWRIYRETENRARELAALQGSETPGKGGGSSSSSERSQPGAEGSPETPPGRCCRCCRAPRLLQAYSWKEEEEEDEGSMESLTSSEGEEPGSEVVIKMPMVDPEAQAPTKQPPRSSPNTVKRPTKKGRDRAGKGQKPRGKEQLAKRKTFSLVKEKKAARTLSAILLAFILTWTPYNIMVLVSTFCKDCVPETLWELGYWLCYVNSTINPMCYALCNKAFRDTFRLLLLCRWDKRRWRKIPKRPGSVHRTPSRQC
T13 sequence (P08912 whole entry): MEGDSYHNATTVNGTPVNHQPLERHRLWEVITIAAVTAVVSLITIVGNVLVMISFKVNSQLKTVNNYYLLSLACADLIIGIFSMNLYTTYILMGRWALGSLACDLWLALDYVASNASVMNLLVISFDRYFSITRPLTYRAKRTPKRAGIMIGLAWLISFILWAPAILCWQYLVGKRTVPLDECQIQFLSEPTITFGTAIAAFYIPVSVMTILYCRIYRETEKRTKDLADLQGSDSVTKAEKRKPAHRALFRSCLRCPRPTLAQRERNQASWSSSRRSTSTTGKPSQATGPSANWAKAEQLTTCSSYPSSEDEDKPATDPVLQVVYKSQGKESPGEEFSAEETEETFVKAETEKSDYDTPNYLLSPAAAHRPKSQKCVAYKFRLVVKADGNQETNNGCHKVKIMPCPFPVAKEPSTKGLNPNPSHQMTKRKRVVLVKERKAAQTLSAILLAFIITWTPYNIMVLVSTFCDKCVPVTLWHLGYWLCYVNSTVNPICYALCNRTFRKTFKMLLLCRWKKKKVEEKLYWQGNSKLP
T6 sequence (P46098 24-478, species assumed): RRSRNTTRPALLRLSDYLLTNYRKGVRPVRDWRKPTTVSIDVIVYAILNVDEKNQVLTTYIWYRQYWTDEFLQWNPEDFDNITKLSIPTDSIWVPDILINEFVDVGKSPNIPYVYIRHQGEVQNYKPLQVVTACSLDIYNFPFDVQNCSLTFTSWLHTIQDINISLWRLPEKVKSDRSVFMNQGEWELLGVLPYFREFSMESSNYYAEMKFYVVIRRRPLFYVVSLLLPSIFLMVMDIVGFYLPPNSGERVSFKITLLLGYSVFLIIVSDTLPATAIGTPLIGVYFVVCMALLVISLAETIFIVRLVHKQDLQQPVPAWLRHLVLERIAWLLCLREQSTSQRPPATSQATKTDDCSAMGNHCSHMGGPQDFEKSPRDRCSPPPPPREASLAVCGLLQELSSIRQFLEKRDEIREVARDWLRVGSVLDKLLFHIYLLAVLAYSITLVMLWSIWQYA

Cl.Cn1ncc2c1Nc1ccccc1NC2 [SOC-1]
preference for the live rat over a toy rat (male Albino Wistar rats): enhanced rats natural preference for an unfamiliar live rat; also recorded: significantly elevated preference for the live rat
Hunched posture or gait- mild (incidence) (Sprague Dawley rats; 1 mg/kg IV): 0
Number of abnormalities detected: (incidence) (Sprague Dawley rats; 1 mg/kg IV): 3
Palpebral closure- mild/moderate (incidence) (Sprague Dawley rats; 1 mg/kg IV): 0
Piloerection- mild (incidence) (Sprague Dawley rats; 1 mg/kg IV): 0
Reduced activity- mild (incidence) (Sprague Dawley rats; 1 mg/kg IV): 0
Hunched posture or gait- mild (incidence) (Sprague Dawley rats; 3 mg/kg IV): 0
Number of abnormalities detected: (incidence) (Sprague Dawley rats; 3 mg/kg IV): 3
Palpebral closure- mild/moderate (incidence) (Sprague Dawley rats; 3 mg/kg IV): 0
Piloerection- mild (incidence) (Sprague Dawley rats; 3 mg/kg IV): 0
Reduced activity- mild (incidence) (Sprague Dawley rats; 3 mg/kg IV): 0
reaction at the time of dose administration (Sprague Dawley rats; 10 mg/kg IV in 0.9% saline): exaggerated flinch reaction and vocalisation
Hunched posture or gait- mild (incidence) (Sprague Dawley rats; 10 mg/kg IV): 3
Number of abnormalities detected: (incidence) (Sprague Dawley rats; 10 mg/kg IV): 0
Palpebral closure- mild/moderate (incidence) (Sprague Dawley rats; 10 mg/kg IV): 0
Piloerection- mild (incidence) (Sprague Dawley rats; 10 mg/kg IV): 3
Reduced activity- mild (incidence) (Sprague Dawley rats; 10 mg/kg IV): 0
Hunched posture or gait- mild (incidence) (Sprague Dawley rats; 30 mg/kg IV): 0
Number of abnormalities detected: (incidence) (Sprague Dawley rats; 30 mg/kg IV): 0
Palpebral closure- mild/moderate (incidence) (Sprague Dawley rats; 30 mg/kg IV): 1
Piloerection- mild (incidence) (Sprague Dawley rats; 30 mg/kg IV): 3
Reduced activity- mild (incidence) (Sprague Dawley rats; 30 mg/kg IV): 2
effect on body weight (Sprague Dawley rats; 1, 3, 10 and 30 mg/kg IV): no effects of SOC-1 test item treatment on body weight
injection site reactions (Sprague Dawley rats; 1, 3, 10 and 30 mg/kg IV): no findings of injection site reactions
morbidity and mortality (Sprague Dawley rats; 1, 3, 10 and 30 mg/kg IV): no unscheduled deaths or findings of morbidity
tolerability (Sprague Dawley rats; 1, 3, 10 and 30 mg/kg IV): tolerated in this study at all dose levels
clinical findings post-dose on Study Day 1 (Sprague Dawley rats; 10 and 30 mg/kg IV): piloerection, hunched posture and gait and palpebral closure
time to resolution of clinical findings post-dose (Sprague Dawley rats; 10 and 30 mg/kg IV): 4 to 24 h
Bodyweight, Mean (Sprague Dawley rats; Group 1 (1 mg/kg IV), day 1): 208.233 g
Bodyweight, Mean (Sprague Dawley rats; Group 1 (1 mg/kg IV), day 2): 203.733 g
Bodyweight, Mean (Sprague Dawley rats; Group 1 (1 mg/kg IV), day 3): 204.933 g
Bodyweight, Mean (Sprague Dawley rats; Group 1 (1 mg/kg IV), day 4): 208.100 g
Bodyweight, Mean (Sprague Dawley rats; Group 1 (1 mg/kg IV), day 5): 210.467 g
Bodyweight, Mean (Sprague Dawley rats; Group 1 (1 mg/kg IV), day 6): 215.300 g
Bodyweight, Mean (Sprague Dawley rats; Group 1 (1 mg/kg IV), day 7): 209.833 g
Bodyweight, Mean (Sprague Dawley rats; Group 1 (1 mg/kg IV), day 8): 216.633 g
Bodyweight, Mean (Sprague Dawley rats; Group 2 (3 mg/kg IV), day 1): 196.867 g
Bodyweight, Mean (Sprague Dawley rats; Group 2 (3 mg/kg IV), day 2): 193.700 g
Bodyweight, Mean (Sprague Dawley rats; Group 2 (3 mg/kg IV), day 3): 198.733 g
Bodyweight, Mean (Sprague Dawley rats; Group 2 (3 mg/kg IV), day 4): 199.233 g
Bodyweight, Mean (Sprague Dawley rats; Group 2 (3 mg/kg IV), day 5): 201.200 g
Bodyweight, Mean (Sprague Dawley rats; Group 2 (3 mg/kg IV), day 6): 204.733 g
Bodyweight, Mean (Sprague Dawley rats; Group 2 (3 mg/kg IV), day 7): 201.967 g
Bodyweight, Mean (Sprague Dawley rats; Group 2 (3 mg/kg IV), day 8): 206.333 g
Bodyweight, Mean (Sprague Dawley rats; Group 3 (10 mg/kg IV), day 1): 205.933 g
Bodyweight, Mean (Sprague Dawley rats; Group 3 (10 mg/kg IV), day 2): 207.267 g
Bodyweight, Mean (Sprague Dawley rats; Group 3 (10 mg/kg IV), day 3): 214.533 g
Bodyweight, Mean (Sprague Dawley rats; Group 3 (10 mg/kg IV), day 4): 216.100 g
Bodyweight, Mean (Sprague Dawley rats; Group 3 (10 mg/kg IV), day 5): 211.733 g
Bodyweight, Mean (Sprague Dawley rats; Group 3 (10 mg/kg IV), day 6): 213.433 g
Bodyweight, Mean (Sprague Dawley rats; Group 3 (10 mg/kg IV), day 7): 219.000 g
Bodyweight, Mean (Sprague Dawley rats; Group 3 (10 mg/kg IV), day 8): 218.900 g
Bodyweight, Mean (Sprague Dawley rats; Group 4 (30 mg/kg IV), day 1): 206.833 g
Bodyweight, Mean (Sprague Dawley rats; Group 4 (30 mg/kg IV), day 2): 202.567 g
Bodyweight, Mean (Sprague Dawley rats; Group 4 (30 mg/kg IV), day 3): 210.967 g
Bodyweight, Mean (Sprague Dawley rats; Group 4 (30 mg/kg IV), day 4): 216.500 g
Bodyweight, Mean (Sprague Dawley rats; Group 4 (30 mg/kg IV), day 5): 209.667 g
Bodyweight, Mean (Sprague Dawley rats; Group 4 (30 mg/kg IV), day 6): 213.367 g
Bodyweight, Mean (Sprague Dawley rats; Group 4 (30 mg/kg IV), day 7): 222.300 g
Bodyweight, Mean (Sprague Dawley rats; Group 4 (30 mg/kg IV), day 8): 219.767 g
acute tolerated dose (Sprague Dawley rats; bolus intravenous injection, female rats): at least 30 mg/kg
affinity for 5-HT1A (5-HT1A): no notable affinity
affinity for 5-HT1B (5-HT1B): no notable affinity
affinity for 5-HT1D (5-HT1D): no notable affinity
affinity for 5-HT2A (5-HT2A): no notable affinity
affinity for 5-HT2B (5-HT2B): no notable affinity
affinity for 5-HT3 (5-HT3): no notable affinity
affinity for 5-HT7 (5-HT7): no notable affinity
affinity for 5-ht1e (5-ht1e): no notable affinity
affinity for Alpha2C (Alpha2C): no notable affinity
affinity for D3 (D3): no notable affinity
affinity for H1 (H1): no notable affinity
affinity for M1 (M1): no notable affinity
affinity for M5 (M5): no notable affinity
affinity for MOR (MOR): no notable affinity
affinity for NET (NET): no notable affinity
